Source: publication PMC8443696, “Structural determinants and regulation of spontaneous activity in GABAA receptors” (Nature Communications, 2021)
“And” between values parts separate entries of the source, which are not always exact repeats. Equal entries are not always repeated. Where two headings read alike, the source gives them in different places.

Assays:
[1] = tested on: cultured hippocampal neurons; assay: Voltage clamp of spontaneous/tonic GABAAR currents in transfected cultured hippocampal neurons; type: cell-based, rat; conditions: for Effect on holding current: gabazine 1 μM; for spontaneous/tonic current, Supp. Fig. 4e: concanamycin treated (vs control), individual cells
Method: This media was replaced 2 h later with neurobasal-A media supplemented with 1% v/v B-27, 50 units/ml penicillin-G, 50 µg/ml streptomycin, 0.5% v/v glutamax and 35 mM glucose. These cells were transfected 6–8 days later using either the calcium phosphate protocol described above, or Effectene with a protocol as described by the manufacturer (Qiagen) using a total 0.8 μg of cDNA per coverslip. […] Neurons were used for electrophysiological recording or confocal imaging 5–9 days later.
(§1) Currents were acquired with Clampex ver.
(§2) Recordings from hippocampal cultures used ~3–5 MΩ electrodes filled with an internal solution consisting of (mM): 140 CsCl, 2 NaCl, 10 HEPES, 5 EGTA, 2 MgCl2, 0.5 CaCl2, 2 Na2ATP, 0.5 Na2GTP, 2 QX-314, pH 7.3. Osmolarity was 300 ± 20 mOsm/L. Cells were perfused in the same Kreb’s solution described above, except for the addition of 2 mM kynurenic acid. Cells were voltage clamped at −60 mV. For current clamp, cells were recorded using an internal electrode solution consisting of (mM): 137 potassium gluconate, 3 KCl, 10 HEPES, 5 EGTA, 0.5 CaCl2, 2 MgCl2, 2 Na2ATP and 0.5 Na2GTP, pH 7.3. Osmolarity was 300 ± 20 mOsm/L. The external solution was as described for voltage-clamp experiments and the calculated junction potential was ~15 mV. Current was injected to hold cells at −70 mV if required. For slice recordings, slices were perfused in the aCSF described above, and the internal solution was the same as that used for cultured neuronal voltage-clamp recordings.

[2] = tested on: dorsal lateral geniculate nucleus (dLGN) thalamic relay neurons; assay: Tonic current in acute thalamic brain slices; type: cell-based, rat;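 on tonic current change with +PTX, Fig. 10b: Holding current density change on antagonist application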;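 on tonic current change with Gabazine, Fig. 10b: Holding current density change on antagonist application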
Source text: (§3) Adolescent male rats (P21–P28) were anaesthetised by inhalation with 5% isoflurane before dispatch and isolation of the brain in accordance with the United Kingdom Animals (Scientific Procedures) Act 1986. The brain was immersed in an ice-cold slicing solution containing (mM): 85 NaCl, 2.5 KCl, 1.25 NaH2PO4, 26 NaHCO3, 75 sucrose, 1 CaCl2, 4 MgCl2, 25 glucose and 2 kynurenic acid, (pH 7.4 when bubbled with 95% O2/5% CO2). Horizontal (hippocampal) and coronal (thalamic) sections (all 350 µm thick) were cut using a Leica VT1200S vibratome before transfer to a holding chamber at 37 °C. The solution was slowly exchanged over 1 h with aCSF containing (mM): 125 NaCl, 2.5 KCl, 1.25 NaH2PO4, 26 NaHCO3, 2 CaCl2, 1 MgCl2, 25 glucose and 2 kynurenic acid (pH 7.4 when bubbled with 95% O2/5% CO2) before maintaining the slices at room temperature prior to recording.
as §1, §2

[3] = tested on: dentate gyrus granule cells (DGGCs); assay: Tonic current in acute hippocampal brain slices; type: cell-based, rat; conditions: for Change in holding current: DGGCs;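 on tonic current change with +PTX, Fig. 10a: Holding current density change on antagonist application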;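 on tonic current change with Gabazine, Fig. 10a: Holding current density change on antagonist application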
Source text: as §3, §1, §2

α4β3δ receptors [4] = target: T1, α4β3δ receptors (UniProt P18506+P63080+Q9D6F4); type: cell-based, mouse; set-up: spontaneous activity, Supp. Fig. 3e: unit not given here; conditions: for Ispont in the presence of modulator: α4β3δ, PS 10 µM (Fig. 6c)
T1 construct: expressed in transfected cells; host or cells: HEK 293
T1 sequence (Q9D6F4 36-552): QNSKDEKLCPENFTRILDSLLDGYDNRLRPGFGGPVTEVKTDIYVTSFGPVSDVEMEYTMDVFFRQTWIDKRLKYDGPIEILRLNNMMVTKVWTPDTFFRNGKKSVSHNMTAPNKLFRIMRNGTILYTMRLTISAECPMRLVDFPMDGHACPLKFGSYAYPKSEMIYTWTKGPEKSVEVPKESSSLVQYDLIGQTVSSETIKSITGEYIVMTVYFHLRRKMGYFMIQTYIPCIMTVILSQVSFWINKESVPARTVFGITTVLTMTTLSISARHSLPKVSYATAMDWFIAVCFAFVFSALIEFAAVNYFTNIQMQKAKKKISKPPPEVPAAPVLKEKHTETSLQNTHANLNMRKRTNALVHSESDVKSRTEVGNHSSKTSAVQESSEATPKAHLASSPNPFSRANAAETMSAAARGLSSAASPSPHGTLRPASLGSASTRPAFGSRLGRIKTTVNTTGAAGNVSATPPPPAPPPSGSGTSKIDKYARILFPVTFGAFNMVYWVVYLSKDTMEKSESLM
T1 sequence (P63080 26-473): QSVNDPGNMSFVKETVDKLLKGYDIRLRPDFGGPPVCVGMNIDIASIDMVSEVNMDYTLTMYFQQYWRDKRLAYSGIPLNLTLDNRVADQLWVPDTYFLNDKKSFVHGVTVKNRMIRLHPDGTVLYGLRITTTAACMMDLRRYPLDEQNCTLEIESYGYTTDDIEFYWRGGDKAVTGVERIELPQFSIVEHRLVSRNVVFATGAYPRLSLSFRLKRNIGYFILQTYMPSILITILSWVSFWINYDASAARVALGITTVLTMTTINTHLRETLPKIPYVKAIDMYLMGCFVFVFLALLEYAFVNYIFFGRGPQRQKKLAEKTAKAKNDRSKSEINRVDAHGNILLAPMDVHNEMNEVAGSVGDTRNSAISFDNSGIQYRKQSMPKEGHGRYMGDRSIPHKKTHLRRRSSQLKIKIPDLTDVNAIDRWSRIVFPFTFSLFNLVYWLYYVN
T1 sequence (P18506 25-449): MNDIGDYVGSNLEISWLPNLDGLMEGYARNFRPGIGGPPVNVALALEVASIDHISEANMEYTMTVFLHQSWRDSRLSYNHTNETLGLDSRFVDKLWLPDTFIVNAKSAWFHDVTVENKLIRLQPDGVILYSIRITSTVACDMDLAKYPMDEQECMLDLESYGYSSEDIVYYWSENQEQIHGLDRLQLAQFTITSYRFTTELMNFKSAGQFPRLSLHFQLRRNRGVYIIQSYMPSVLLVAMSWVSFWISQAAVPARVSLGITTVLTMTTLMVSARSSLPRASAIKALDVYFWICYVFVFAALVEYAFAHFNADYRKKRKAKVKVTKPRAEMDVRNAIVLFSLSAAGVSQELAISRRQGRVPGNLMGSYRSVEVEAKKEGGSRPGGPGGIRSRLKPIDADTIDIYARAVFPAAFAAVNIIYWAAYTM
Source text: (§4) All components were obtained from Life Technologies.
as §1
(§5) Cells were voltage clamped at −40 mV.
(§6) For assessment of the efficacy of allosteric modulators on spontaneous activity, compounds were briefly applied (3–5 s) to achieve steady-state currents (IMod). […] The IMod was summed with IPTX (or subtracted for inhibitory modulators) and the Ispont calculated, as described by Eq. (2):2 Ispont(%)=[(IPTX+IMod)/(IPTX+IMax)]×100……………………………………

α4β3δ receptors [5] = type: cell-based, mouse; set-up: spontaneous activity, Supp. Fig. 3e: unit not given here; conditions: for Ispont during staurosporine application: 200 nM staurosporine
Source text: as §4, §1, §5, §6

α4β3^S409Aδ receptors = tested on: T2, α4β3^S409Aδ receptors; assay: Quantification of spontaneous activity (Ispont) in HEK cells, whole-cell patch clamp; type: cell-based, mouse; conditions: α4β3S409Aδ, PS 10 µM (Fig. 6c)
T2 construct: expressed in transfected cells; host or cells: HEK 293
Source text: as §4, §1, §5, §6

α4^Q246Mβ3δ receptors = tested on: T3, α4^Q246Mβ3δ receptors; assay: as above; type: cell-based, mouse; conditions: α4Q246Mβ3δ, PS 10 µM (Fig. 6c)
T3 construct: expressed in transfected cells; host or cells: HEK 293
Source text: as §4, §1, §5, §6

[6] = tested on: T4, α4β3^S408D,S409Dδ receptors; assay: as above; type: cell-based, mouse; conditions: for Ispont during staurosporine application: α4β3S408D,S409Dδ, 200 nM staurosporine, individual cells
T4 construct: expressed in transfected cells; host or cells: HEK 293
Source text: as §4, §1, §5

[7] = tested on: T5, α4β3^S408A,S409Aδ receptors; assay: as above; type: cell-based, mouse; conditions: for Ispont during staurosporine application: α4β3S408A,S409Aδ, 200 nM staurosporine, individual cells
T5 construct: expressed in transfected cells; host or cells: HEK 293
Source text: as §4, §1, §5

α4β3 receptors = tested on: T6, α4β3 receptors; assay: Agonist-evoked whole-cell currents and their modulation by Zn2+ / DS2 in HEK cells; type: cell-based, mouse; set-up: GABA current, Supp. Fig. 2b / GABA + DS2 current, Supp. Fig. 2b / GABA current, Supp. Fig. 2a: unit not given here; conditions: GABA with DS2, individual cells
T6 construct: expressed in transfected cells; host or cells: HEK 293
Source text: as §4, §1, §5

α4β3δ receptors [8] = target: T1, α4β3δ receptors; assay: as above; type: cell-based, mouse
Source text: as §4, §1, §5

α4β3δ GABAARs = tested on: T7, α4β3δ GABAARs; assay: Single-channel recording of spontaneous currents, outside-out patches of HEK cells; type: cell-based, mouse; conditions: 100 μM PTX, absence of GABA
T7 construct: expressed in transfected cells; host or cells: HEK cells (outside-out patches)
Method: To limit ion channel density in individual patches, HEK cells were transfected with 5 ng α4, β3, δ and eGFP cDNAs. Resulting spontaneous single-channel currents were digitised at a sampling rate of 20 kHz and filtered at 5 kHz with a 4-pole Bessel filter (24 dB per octave). A fixed time resolution of 80 μs was used as a preset. Recordings were undertaken using thick-walled borosilicate patch pipettes (6–10 MΩ) filled with a solution containing (mM): 145 CsCl, 2.5 NaCl, 10 HEPES, 1 EGTA, 4 MgATP, pH 7.3. Osmolarity was 300 ± 20 mOsm/L. Cells were perfused with an external solution consisting of (mM): 145 NaCl, 2.5 KCl, 1 CaCl2, 1 MgCl2, 10 HEPES, 10 glucose, pH 7.3. Prior control recordings were obtained using untransfected HEK cells to identify endogenous channel currents.
Channel currents were digitally low pass filtered at 1–2 kHz prior to analysis. […] Channel dwell states were identified using a threshold cursor method. This state transition detection method for open and shut events was used to assemble an idealised record of the digitised data. Open times affected by channel stacking were not included in the analyses and sub-conductance states were also rare and excluded from the analysis.
The analysis of the dwell times for single-channel currents was performed by fitting a mixture of exponential components to the open time distributions. These defined the mean open times and their relative proportions (area of the components) based on using a Levenberg-Marquardt non-linear least-squares routine (WinEDR ver 3.8.7, courtesy of J Dempster, University of Strathclyde).

[9] = Gabazine alone, individual cells
[10] = eGFP- and β3-expressing neurons, concanamycin A 0.5 μM
[11] = PTX added after Gabazine, individual cells

Method for β3 homomeric receptors: HEK 293 cells were maintained in Dulbecco’s modified Eagle’s medium supplemented with 10% v/v heat-inactivated fetal calf serum, 100 units/ml penicillin-G and 100 µg/ml streptomycin and incubated at 37 °C in humidified 95% air/5% CO2. […] Cells were maintained within a passage range of P12–35. Dissociated HEK cells were plated onto 22 mm glass coverslips (VWR) coated in poly-L-lysine (Sigma). Cells were transfected >1 h later using a calcium phosphate protocol whereby a transfection solution was prepared consisting of 20 μl of 340 mM CaCl2, 24 μl of 2× HBS (50 mM HEPES, 280 mM NaCl, 2.8 mM Na2HPO4) and 4 μg cDNA per coverslip. […] Cells were recorded from 24–48 h later.
For all electrophysiological experiments, cells were visualised using a Nikon Eclipse E600FN microscope. Whole-cell currents were recorded using an Axopatch 200B amplifier and digitised using a Digidata 1322 A (Axon Instruments). […]
HEK cells were recorded from using borosilicate glass electrodes with resistances ~3–5 MΩ when filled with an internal solution containing (mM): 1 MgCl2, 140 KCl, 11 EGTA, 10 HEPES, 1 CaCl2, 2 K2ATP, pH 7.2. Osmolarity was 300 ± 20 mOsm/L, measured using a vapour pressure osmometer (Model 5520, Wescor Inc). […]

Compound: COc1ccc(-c2ccc(=N)n(CCCC(=O)O)n2)cc1 [gabazine]
- Effect on holding current ([1]; eGFP-transfected neurons): small agonist effect
- Effect on holding current ([1]; β3-transfected neurons): partial antagonism
- tonic current change with Gabazine, Fig. 10b [2, 9]: 0.2002 and 0.032 and 0.025 and 0.02996 and 0.07463 and 0.08562 and 0.04525 and 0.03574 and -0.03067 and 0.01818
- Effect on tonic current ([2]; dLGN thalamic relay neurons, gabazine 20 µM): part-inhibited
- Effect on spontaneous holding current (β3 homomeric receptors; β3 alone, gabazine 1 µM): but not with β3 alone
- Change in holding current ([3]; gabazine 20 µM): small increments in holding current
- tonic current change with Gabazine, Fig. 10a [3, 9]: -0.04645 and -0.07728 and -0.0199 and 0.08319 and 0 and -0.01133 and -0.01699 and -0.02885 and -0.01144
- Effect on spontaneous holding current (α4β3δ receptors [4]; cells expressing α4, β3 and δ, gabazine 1 µM): behaved as an inverse agonist

Compound: CN(C)CCCn1cc(C2=C(c3c[nH]c4ccccc34)C(=O)NC2=O)c2ccccc21 [bisindolylmaleimide-I]
- Ispont with PKC inhibitor in the patch electrode solution (α4β3δ receptors [5]; α4β3δ, Bis-I 200 nM internal, 2 min dialysis (Fig. 5e)): significantly reduced

Compound: CCCC(C)C1(CC)C(=O)NC(=O)NC1=O (stereo not drawn) [pentobarbital]
- Whole-cell current evoked by pentobarbital (β3 homomeric receptors; β3, 100 µM pentobarbital, n = 11): 220 ± 94 pA

Compound: C/C=C/[C@H]1O[C@@](O)([C@@H](C)[C@H](O)[C@H](C)[C@H]2OC(=O)/C(OC)=C/C(C)=C/[C@@H](C)[C@@H](O)[C@@H](CC)[C@@H](O)[C@H](C)C/C(C)=C/C=C/[C@@H]2OC)C[C@@H](O[C@H]2C[C@@H](O)[C@H](OC(N)=O)[C@@H](C)O2)[C@@H]1C [concanamycin A]
- spontaneous/tonic current, Supp. Fig. 4e ([1]; eGFP neurons): 1.043 and 0.1205 and 0.1429 and 0.1839 and 0.303 and 0.1613 and 0.3626 and 0.3579
- Effect on IPSCs [1, 10]: abolished
- Effect on PTX-sensitive spontaneous currents [1, 10]: without affecting
- spontaneous/tonic current, Supp. Fig. 4e ([1]; β3 neurons): 1.595 and 1.13 and 1.667 and 1.221 and 1.725 and 1.692

Compound: pregnenolone sulphate [Pregnenolone sulfate]
- Ispont in the presence of modulator (α4β3δ receptors [4]): reduced
- Ispont in the presence of modulator (α4β3δ receptors [4]; listed as PS): 5.825% and 4.865% and 6.452% and 3.37% and 4.547% and 9.251% and 6.244% and 4.926%
- Ispont in the presence of modulator (α4β3^S409Aδ receptors): reduced
- Ispont in the presence of modulator (α4β3^S409Aδ receptors; listed as PS): 0.7651% and 0.3749% and 0.1269% and 0.9165% and 2.143% and 0.1295% and 1.652%
- Ispont in the presence of modulator (α4^Q246Mβ3δ receptors): reduced
- Ispont in the presence of modulator (α4^Q246Mβ3δ receptors; listed as PS): 3.665% and 9.322% and 7.162% and 6.1828% and 3.237% and 4.8719% and 4.011%

Compound: CN[C@@H]1C[C@H]2O[C@@](C)([C@@H]1OC)n1c3ccccc3c3c4c(c5c6ccccc6n2c5c31)C(=O)NC4 [staurosporine]
- Effect on Ispont over 20 min compared to control ([6]; phosphomimetic α4β3^S408D,S409Dδ, staurosporine 200 nM): no effect
- Ispont during staurosporine application ([6]; time 1 min): 12.5% and 12.6%
- Ispont during staurosporine application ([6]; time 10 min): 11.9% and 9.4% and 7.9%
- Ispont during staurosporine application ([6]; time 20 min): 8.8% and 8.7% and 7.1%
- Effect on Ispont over 20 min compared to control ([7]; phospho-null α4β3^S408A,S409Aδ, staurosporine 200 nM): no effect
- Ispont during staurosporine application ([7]; time 1 min): 7.3% and 8.9% and 6.5% and 29.4%
- Ispont during staurosporine application ([7]; time 10 min): 5.4% and 6.9% and 9.5% and 5.6% and 26.6%
- Ispont during staurosporine application ([7]; time 20 min): 5.7% and 5.8% and 7.2% and 5%
- Ispont during staurosporine application (α4β3δ receptors [5]; α4β3δ, time 1 min, individual cells): decreased significantly and 13.2% and 6.4% and 6.3%
- Ispont during staurosporine application (α4β3δ receptors [5]; α4β3δ, time 10 min, individual cells): 9.3% and 12.3% and 3.2% and 4.6%
- Ispont during staurosporine application (α4β3δ receptors [5]; α4β3δ, time 20 min, individual cells): 7.5% and 8% and 2.3% and 3.8%

Compound: CN([C@@H](Cc1ccc(OS(=O)(=O)c2cccc3cnccc23)cc1)C(=O)N1CCN(c2ccccc2)CC1)S(=O)(=O)c1cccc2cnccc12 [KN-62]
- spontaneous activity, Supp. Fig. 3e (α4β3δ receptors [5]; KN-62 treated (vs control), individual cells): 9.722 and 13.6922 and 18.602 and 3.467 and 9.093 and 9.783 and 14.5969 and 3.449 and 5.659
- Effect on Ispont of internally applied CaMKII inhibitor (α4β3δ receptors [5]; α4β3δ, KN-62 3 µM internal): no effect

Compound: O=C(Nc1c(-c2cccs2)nc2ccccn12)c1ccc(Cl)cc1 [DS2]
- GABA + DS2 current, Supp. Fig. 2b (α4β3 receptors): 0.04 and 0.14 and 0.11 and 0.09 and 0.26
- Effect on 0.3 μM GABA responses (α4β3δ receptors [8]; DS2 5 μM): potentiated
- GABA + DS2 current, Supp. Fig. 2b (α4β3δ receptors [8]; GABA with DS2, individual cells): 1.82 and 1.25 and 0.43 and 1.45 and 3.44

Compound: picrotoxin [PTX]
- tonic current change with +PTX, Fig. 10b [2, 11]: 0.2529 and 0.032 and 0.04 and 0.1019 and 0.1492 and 0.1027 and 0.03878 and 0.06433 and 0.1595 and 0.03636
- Effect on residual tonic current ([2]; dLGN thalamic relay neurons, PTX 100 μM after gabazine): blocked
- Change in holding current ([3]; PTX 100 μM after gabazine): large reduction in holding current
- tonic current change with +PTX, Fig. 10a [3, 11]: 0.1792 and 0.4018 and 0.1492 and 0.2163 and 0.07528 and 0.1359 and 0.2209 and 0.2596 and 0.5835
- Effect on spontaneous single-channel currents (α4β3δ GABAARs): blocked

Compound: PKA inhibitor peptide 14–22: selective PKA inhibitor peptide (GRTGRRNAI; UniProt P61925 15-23, looked up, fragment)
- Ispont with PKA inhibitor in the patch electrode solution (α4β3δ receptors [5]; α4β3δ, PKI 1 μM internal, 2 min dialysis (Fig. 5d)): significantly reduced
